In this assay the target is human NEP (Homo sapiens (Human), UniProt P08473). The assay is described as follows: In vitro enzyme inhibition assay at human NEP. The settings on record: recombinant human NEP, fluorogenic peptide substrate, 37° C.; for Ki: pKi.

What is called Ki is the dissociation constant of the complex between target and ligand, obtained from inhibition or displacement.

Chain of human NEP (P08473 52-750): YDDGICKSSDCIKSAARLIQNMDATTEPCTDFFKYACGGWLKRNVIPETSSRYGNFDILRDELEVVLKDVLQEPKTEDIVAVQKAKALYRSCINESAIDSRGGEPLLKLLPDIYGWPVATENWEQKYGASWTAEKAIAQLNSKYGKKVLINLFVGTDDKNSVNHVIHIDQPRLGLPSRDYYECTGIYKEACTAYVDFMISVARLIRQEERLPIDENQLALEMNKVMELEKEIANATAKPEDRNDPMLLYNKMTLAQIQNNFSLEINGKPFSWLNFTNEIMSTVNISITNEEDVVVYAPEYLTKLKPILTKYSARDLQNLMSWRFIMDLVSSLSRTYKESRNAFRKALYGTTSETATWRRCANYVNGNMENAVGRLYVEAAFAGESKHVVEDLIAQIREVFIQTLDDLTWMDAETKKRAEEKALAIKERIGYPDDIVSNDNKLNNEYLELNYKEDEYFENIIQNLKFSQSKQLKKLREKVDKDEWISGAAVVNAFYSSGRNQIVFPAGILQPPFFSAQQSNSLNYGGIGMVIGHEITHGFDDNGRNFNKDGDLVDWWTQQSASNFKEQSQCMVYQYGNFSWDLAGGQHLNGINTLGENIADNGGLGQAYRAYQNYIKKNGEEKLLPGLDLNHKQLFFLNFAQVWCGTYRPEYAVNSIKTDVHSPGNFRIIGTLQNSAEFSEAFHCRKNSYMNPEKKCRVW
Experimental: The inhibitory activities of compounds at human and rat neprilysin (EC 3.4.24.11; NEP) and human angiotensin converting enzyme (ACE) were determined using in vitro assays as described below.
The assays were performed in 384-well white opaque plates at 37° C. using the fluorogenic peptide substrates at a concentration of 10 μM in Assay Buffer (NEP: 50 mM HEPES, pH 7.5, 100 mM NaCl, 0.01% polyethylene glycol sorbitan monolaurate (Tween-20), 10 μM ZnSO4; ACE: 50 mM HEPES, pH 7.5, 100 mM NaCl, 0.01% Tween-20, 1 μM ZnSO4).
Test compounds were assayed over the range of concentrations from 10 μM to 20 pM. Test compounds were added to the enzymes and incubated for 30 minute at 37° C. prior to initiating the reaction by the addition of substrate.
Plates were read on a fluorometer with excitation and emission wavelengths set to 320 nm and 405 nm, respectively Inhibition constants were obtained by nonlinear regression of the data using the equation (GraphPad Software, Inc., San Diego, Calif.): v=v0/[1+(I/K′)] where v is the reaction rate, v0 is the uninhibited reaction rate, I is the inhibitor concentration and K′ is the apparent inhibition constant.

As to `N#CC[C@H](C[C@@H](Cc1ccc(-c2ccccc2)cc1)NC(=O)c1cnn[nH]1)C(=O)O` [Example 50, (2S,4S)-5-Biphenyl-4-yl-2-cyanomethyl-4-[(3H-[1,2,3]triazole-4-carbonyl)amino]pentanoic Acid], the pKi entry is given as “≧9.0”. Take `N#CC[C@H](C[C@@H](Cc1ccc(-c2cc(Cl)ccc2F)cc1)NC(=O)c1c[nH]nn1)C(=O)O` [Example 51, (2S,4S)-5-(5′-chloro-2′-fluorobiphenyl-4-yl)-2-cyanomethyl-4-[(3H-[1,2,3]triazole-4-carbonyl)amino]pentanoic acid]: the Ki was in the range of 1.26 to 3.16 nM. On to `N#CC[C@H](C[C@@H](Cc1ccc(-c2cc(Cl)ccc2F)cc1)NC(=O)c1cnsc1)C(=O)O` [Example 52-3, (2S,4S)-5-(5′-Chloro-2′-fluorobiphenyl-4-yl)-2-cyanomethyl-4-[(isothiazole-4-carbonyl)amino]pentanoic acid], for which the Ki lay in the range of 1.26 to 3.16 nM.

On to `NC(=O)C[C@H](C[C@@H](Cc1ccc(-c2ccccc2)cc1)NC(=O)c1cnn[nH]1)C(=O)O` [Example 53, (2S,4S)-5-Biphenyl-4-yl-2-carbamoylmethyl-4-[(3H-[1,2,3]triazole-4-carbonyl)amino]pentanoic Acid], for which the pKi result was “≧9.0”. On to `NC(=O)C[C@@H](C[C@@H](Cc1ccc(-c2cccc(F)c2)cc1)NC(=O)c1cnn[nH]1)C(=O)O` [Example 54, (2R,4S)-2-Carbamoylmethyl-5-(3′-fluorobiphenyl-4-yl)-4-[(3H-[1,2,3]triazole-4-carbonyl)amino]pentanoic Acid], for which the Ki was 1.26 to 3.16 nM.

Regarding `O=C(N[C@H](Cc1ccc(-c2cc(Cl)ccc2F)cc1)C[C@@H](NC(=O)[C@@H]1CCCN1)C(=O)O)c1cnn[nH]1` [Example 55, (2R,4R)-5-(5′-Chloro-2′-fluorobiphenyl-4-yl)-2-[((S)-pyrrolidine-2-carbonyl)amino]-4-[(3H-[1,2,3]triazole-4-carbonyl)amino]pentanoic Acid], the Ki was in the range of 3.16 to 10 nM.

Consider `NCCCC[C@H](N)C(=O)N[C@H](C[C@@H](Cc1ccc(-c2cc(Cl)ccc2F)cc1)NC(=O)c1cnn[nH]1)C(=O)O` [Example 56, (2R,4R)-5-(5′-Chloro-2′-fluorobiphenyl-4-yl)-2-((S)-2,6-diaminohexanoylamino)-4-[(3H-[1,2,3]triazole-4-carbonyl)amino]pentanoic Acid], for which the Ki was in the range of 1.26 to 3.16 nM.

In the case of `N[C@@H](Cc1ccccc1)C(=O)N[C@H](C[C@@H](Cc1ccc(-c2cc(Cl)ccc2F)cc1)NC(=O)c1cnn[nH]1)C(=O)O` [Example 57, (2R,4R)-2-((S)-2-Amino-3-phenylpropionylamino)-5-(5′-chloro-2′-fluorobiphenyl-4-yl)-4-[(3H-[1,2,3]triazole-4-carbonyl)amino]pentanoic Acid], the pKi result is reported as “≧9.0”. `O=C(N[C@H](Cc1ccc(-c2cc(Cl)ccc2F)cc1)C[C@@H](Cn1ccnn1)C(=O)O)c1cnn[nH]1` [Example 61a, (2S,4S)-5-(5′-Chloro-2′-fluorobiphenyl-4-yl)-4-[(3H-[1,2,3]triazole-4-carbonyl)amino]-2-[1,2,3]triazol-1-ylmethylpentanoic Acid]: the Ki is at most 1 nM.

As to `O=C(N[C@H](Cc1ccc(-c2cc(Cl)ccc2F)cc1)C[C@@H](Cn1nccn1)C(=O)O)c1cnn[nH]1` [Example 61b, (2S,4S)-5-(5′-Chloro-2′-fluorobiphenyl-4-yl)-4-[(3H-[1,2,3]triazole-4-carbonyl)amino]-2-[1,2,3]triazol-2-ylmethylpentanoic Acid], the Ki is at most 1 nM. Regarding `O=C(N[C@H](Cc1ccc(-c2cc(Cl)ccc2F)cc1)C[C@@H](Cn1ccnc1)C(=O)O)c1cnn[nH]1` [Example 62, (2S,4S)-5-(5′-Chloro-2′-fluorobiphenyl-4-yl)-2-imidazol-1-ylmethyl-4-[(3H-[1,2,3]triazole-4-carbonyl)amino]pentanoic Acid], the pKi entry is “≧9.0”. Consider `O=C(N[C@H](Cc1ccc(-c2cc(Cl)ccc2F)cc1)C[C@@H](Cc1nnn[nH]1)C(=O)O)c1cnn[nH]1` [Example 63, (2S,4S)-5-(5′-Chloro-2′-fluorobiphenyl-4-yl)-2-(1H-tetrazol-5-ylmethyl)-4-[(3H-[1,2,3]triazole-4-carbonyl)amino]pentanoic Acid], for which the Ki lay in the range of 1.26 to 3.16 nM.

With `CN(C)CC(=O)N[C@H](C[C@@H](Cc1ccc(-c2cc(Cl)ccc2F)cc1)NC(=O)c1cnn[nH]1)C(=O)O` [Example 64, (2R,4R)-5-(5′-Chloro-2′-fluorobiphenyl-4-yl)-2-(2-dimethylaminoacetylamino)-4-[(3H-[1,2,3]triazole-4-carbonyl)amino]pentanoic Acid], the Ki is 1.26 to 3.16 nM. Take `CNCC(=O)N[C@H](C[C@@H](Cc1ccc(-c2cc(Cl)ccc2F)cc1)NC(=O)c1cnn[nH]1)C(=O)O` [Example 65, (2R,4R)-5-(5′-Chloro-2′-fluorobiphenyl-4-yl)-2-(2-methylaminoacetylamino)-4-[(3H-[1,2,3]triazole-4-carbonyl)amino]pentanoic Acid]: the Ki was in the range of 1.26 to 3.16 nM.

Take `O=C(N[C@H](Cc1ccc(-c2cc(Cl)ccc2F)cc1)C[C@@H](Cc1noc(=O)[nH]1)C(=O)O)c1cnn[nH]1` [Example 66, (2S,4S)-5-(5′-Chloro-2′-fluorobiphenyl-4-yl)-2-(5-oxo-4,5-dihydro-[1,2,4]oxadiazol-3-ylmethyl)-4-[(3H-[1,2,3]triazole-4-carbonyl)amino]pentanoic Acid]: the Ki fell in the range of 1.26 to 3.16 nM.

On to `COC(=O)NCC(=O)N[C@H](C[C@@H](Cc1ccc(-c2cc(Cl)ccc2F)cc1)NC(=O)c1c[nH]nn1)C(=O)O` [Example 67, (2R,4R)-5-(5′-Chloro-2′-fluorobiphenyl-4-yl)-2-(2-methoxycarbonylaminoacetylamino)-4-[(1H-[1,2,3]triazole-4-carbonyl)amino]pentanoic Acid], for which the pKi result is listed as “≧9.0”. Regarding `NCCCC(=O)NC[C@H](C[C@@H](Cc1ccc(-c2cc(Cl)ccc2F)cc1)NC(=O)c1cnn[nH]1)C(=O)O` [Example 68, (2S,4S)-2-[(4-Aminobutyrylamino)methyl]-5-(5′-chloro-2′-fluorobiphenyl-4-yl)-4-[(3H-[1,2,3]triazole-4-carbonyl)amino]pentanoic acid], the Ki is 3.16 to 10 nM. With `O=C(N[C@H](Cc1ccc(-c2cc(Cl)ccc2F)cc1)C[C@@H](CN1CCOCC1)C(=O)O)c1c[nH]nn1` [Example 69a, (2S,4S)-5-(5′-Chloro-2′-fluorobiphenyl-4-yl)-2-morpholin-4-ylmethyl-4-[(1H-[1,2,3]triazole-4-carbonyl)amino]pentanoic Acid], the Ki is 1.26 to 3.16 nM. On to `NCCCCCC(=O)N[C@H](C[C@@H](Cc1ccc(-c2cc(Cl)ccc2F)cc1)NC(=O)c1c[nH]nn1)C(=O)O` [Example 70, (2R,4R)-2-(6-Aminohexanoylamino)-5-(5′-chloro-2′-fluorobiphenyl-4-yl)-4-[(1H-[1,2,3]triazole-4-carbonyl)amino]pentanoic Acid], for which the pKi result is “≧9.0”. The same measure, in the same setting: as for `CNCCCC(=O)N[C@H](C[C@@H](Cc1ccc(-c2cc(Cl)ccc2F)cc1)NC(=O)c1c[nH]nn1)C(=O)O` [Example 71, (2R,4R)-5-(5′-Chloro-2′-fluorobiphenyl-4-yl)-2-(4-methylamino-butyrylamino)-4-[(1H-[1,2,3]triazole-4-carbonyl)amino]pentanoic Acid], the entry is “≧9.0”. Take `NCCCCC(=O)N[C@H](C[C@@H](Cc1ccc(-c2cc(Cl)ccc2F)cc1)NC(=O)c1c[nH]nn1)C(=O)O` [Example 72, (2R,4R)-2-(5-Amino-pentanoylamino)-5-(5′-chloro-2′-fluorobiphenyl-4-yl)-4-[(1H-[1,2,3]triazole-4-carbonyl)amino]pentanoic Acid]: the pKi entry is recorded as “≧9.0”.

Take `CN(C)CCCC(=O)N[C@H](C[C@@H](Cc1ccc(-c2cc(Cl)ccc2F)cc1)NC(=O)c1c[nH]nn1)C(=O)O` [Example 73, (2R,4R)-5-(5′-Chloro-2′-fluorobiphenyl-4-yl)-2-(4-dimethylaminobutyrylamino)-4-[(1H-[1,2,3]triazole-4-carbonyl)amino]pentanoic Acid]: the pKi result is “≧9.0”.

For `COCCCNC[C@H](C[C@@H](Cc1ccc(-c2cc(Cl)ccc2F)cc1)NC(=O)c1cnn[nH]1)C(=O)O` [Example 74, (2S,4S)-5-(5′-Chloro-2′-fluorobiphenyl-4-yl)-2-[(3-methoxypropylamino)-methyl]-4-[(3H-[1,2,3]triazole-4-carbonyl)amino]pentanoic Acid], the Ki was 1.26 to 3.16 nM. For the compound `CN(C)C[C@H](C[C@@H](Cc1ccc(-c2cc(Cl)ccc2F)cc1)NC(=O)c1cnn[nH]1)C(=O)O` [Example 75, (2S,4S)-5-(5′-Chloro-2′-fluorobiphenyl-4-yl)-2-dimethylaminomethyl-4-[(3H-[1,2,3]triazole-4-carbonyl)amino]pentanoic Acid], the Ki fell in the range of 1.26 to 3.16 nM. Turning to `COC[C@H](C[C@@H](Cc1ccc(-c2cccc(Br)c2)cc1)NC(=O)c1cnn[nH]1)C(=O)O` [Example 80, (2S,4S)-5-(3′-Bromobiphenyl-4-yl)-2-methoxymethyl-4-[(3H-[1,2,3]triazole-4-carbonyl)amino]pentanoic Acid], the pKi result is given as “≧9.0”. `O=C(N[C@H](Cc1ccc(-c2cc(Cl)ccc2F)cc1)C[C@@H](CNCCF)C(=O)O)c1cnn[nH]1` [Example 81, (2S,4S)-5-(5′-Chloro-2′-fluorobiphenyl-4-yl)-2-[(2-fluoroethylamino)methyl]-4-[(3H-[1,2,3]triazole-4-carbonyl)amino]pentanoic Acid]: the Ki lay in the range of 3.16 to 10 nM. With `O=C(N[C@H](Cc1ccc(-c2cc(Cl)ccc2F)cc1)C[C@@H](CNCC(F)F)C(=O)O)c1cnn[nH]1` [Example 82a, (2S,4S)-5-(5′-Chloro-2′-fluorobiphenyl-4-yl)-2-[(2,2-difluoroethylamino)methyl]-4-[(3H-[1,2,3]triazole-4-carbonyl)amino]pentanoic Acid], the Ki is at most 1 nM. With `O=C(N[C@H](Cc1ccc(-c2cc(Cl)ccc2F)cc1)C[C@@H](CN1CC(O)C1)C(=O)O)c1cnn[nH]1` [Example 83b, (2S,4S)-5-(5′-Chloro-2′-fluorobiphenyl-4-yl)-2-(3-hydroxyazetidin-1-ylmethyl)-4-[(3H-[1,2,3]triazole-4-carbonyl)amino]pentanoic Acid], the Ki is at most 1 nM.
